{"source": "patent US20250387419A1", "about": "“PARP INHIBITOR-RESISTANT PATIENT TREATED WITH TH-302” (ASCENTAWITS PHARMACEUTICALS, LTD., priority 2021, published 2025)", "key": {"[1]": {"assay": "Safety (body weight) in Capan-1 CDX model (3.1)", "assay_type": "in vivo", "design": "Body weight: unit: g", "details": "for Body weight / Body weight change percentage: olaparib 100 mg/kg p.o. QD×30, TH-302 75 mg/kg i.v. QW×3", "method": "Each nude female BALB/c mouse was subcutaneously inoculated at a lower portion of the right back with 5×10^5 Capan-1 cells resuspended in a 1:1 mixture of PBS and matrigel (0.1 ml per mouse). A total of 64 female mice were inoculated. The inoculation was conducted on Jun. […] The test drug olaparib group was orally and intragastrically administered, once daily for a total of 30 days. Efficacy was evaluated based on relative tumor growth inhibition (TGI) rates (%), and safety was evaluated based on body weight changes and deaths of the animals."}, "[2]": {"system": "human pancreatic cancer Capan-1 subcutaneous xenograft model", "assay": "In-depth efficacy in olaparib-resistant pancreatic cancer Capan-1 CDX model (3.2)", "assay_type": "in vivo, mouse", "details": "Group 2: 100 mg/kg p.o. QD×30", "method": "Protocol: Nude BALB/c mice were subcutaneously inoculated with human pancreatic cancer Capan-1 cells, establishing a human pancreatic cancer subcutaneous xenograft model. The mice were divided into 7 groups, 6 in each group: 100 mg/kg of the test drug olaparib as a monotherapy (Group 2); 50 mg/kg of TH-302 as a monotherapy (Group 3, QD); 100 mg/kg of TH-302 as a monotherapy (Group 4); 50 mg/kg of TH-302 as a monotherapy (Group 5, QW); 25 mg/kg of TH-302 as a monotherapy (Group 6); 25 mg/kg TH-302 in combination therapy with 100 mg/kg olaparib (Group 7); and 10% anhydrous ethanol+10% polyoxyethylene (35) castor oil+80% glucose injection solution D5W (pH 7.4) as a vehicle control (Group 1). The vehicle control group and the TH-302 test groups were all administered through tail vein injection. The 50 mg/kg TH-302 monotherapy group (Group 3, QD) was administered once daily for 3 consecutive days. After rest for 4 days and two weeks, the mice were again administered daily for another 3 consecutive days. TH-302 in all the 100 mg/kg (Group 4, QW), 50 mg/kg (Group 5, QW) and 25 mg/kg (Group 6, QW) TH-302 monotherapy groups and 25 mg/kg TH-302+100 mg/kg olaparib combination therapy group (Group 7) was administered once weekly for a total of three weeks. The test drug olaparib in all the groups was orally and intragastrically administered once daily for totally 30 days. Routes of administration, doses and regimens for the human pancreatic cancer Capan-1 animal model are specifically summarized in Table 12.\nTumor growth of the treatment and control groups on different days in the experiment were recorded and shown in Table 13, and corresponding tumor volume growth curves of the mice in respective groups are shown in FIG. 7. Efficacy evaluation was conducted based on relative tumor proliferation rates and relative tumor growth inhibition rates, and the results of efficacy analysis are summarized in Table 14. Body weight changes of the treatment and control groups after administration were recorded to investigate safety of the groups in the human pancreatic cancer Capan-1 subcutaneous model. Body weight change rates of the mice on Day 43 are shown in Table 15, and curves showing body weights of the treatment groups over time are plotted in FIG. 8.\nA relative tumor proliferation rate, denoted as T/C %, is calculated as a relative tumor volume or a tumor weight of a treatment group as a percentage of that of the control group at a certain point of time according to:\nT/C %=TRTV/CRTV×100% (where TRTV denotes average RTV of the treatment group; CRTV represents average RTV of the vehicle control group; and RTV=Vt/V0, where V0 is a tumor volume of an animal at the time of randomization, and Vt is a tumor volume of the animal after treatment); or\nT/C %=TTW/CTW×100% (where TTW is an average tumor weight of the treatment group at the end of the experiment, and CTW is an average tumor weight of the vehicle control group at the end of the experiment).\nA relative tumor growth inhibition rate, denoted as TGI (%), is calculated according to: TGI %=(1−T/C)×100% (where T and C are relative tumor volumes (RTV) or tumor weights (TW) of a treatment group and the control group, respectively, at a particular point of time)."}}, "note": "Several values for one entry are separate records, joined by “and”; a condition that tells them apart may be missing. Equal values may be shown once. Entries after “also recorded” stand apart in the source; their conditions may differ."}
{"smiles": "O=C(c1cc(Cc2n[nH]c(=O)c3ccccc23)ccc1F)N1CCN(C(=O)C2CC2)CC1", "note": "[olaparib]", "values": [{"measurement": "Body weight", "setting": "[1]; Day 5", "value": 22.8}, {"measurement": "Body weight change percentage", "setting": "[1]; Day 5", "value": 0.00, "unit": "%"}, {"measurement": "Body weight", "setting": "[1]; Day 6", "value": 22.5}, {"measurement": "Body weight change percentage", "setting": "[1]; Day 6", "value": "−1.18", "unit": "%"}, {"measurement": "Body weight", "setting": "[1]; Day 7", "value": 22.6}, {"measurement": "Body weight change percentage", "setting": "[1]; Day 7", "value": "−0.91", "unit": "%"}, {"measurement": "Body weight", "setting": "[1]; Day 8", "value": 22.7}, {"measurement": "Body weight change percentage", "setting": "[1]; Day 8", "value": "−0.35", "unit": "%"}, {"measurement": "Body weight", "setting": "[1]; Day 9", "value": 22.6}, {"measurement": "Body weight change percentage", "setting": "[1]; Day 9", "value": "−0.82", "unit": "%"}, {"measurement": "Body weight", "setting": "[1]; Day 10", "value": 23.0}, {"measurement": "Body weight change percentage", "setting": "[1]; Day 10", "value": 1.04, "unit": "%"}, {"measurement": "Body weight", "setting": "[1]; Day 11", "value": 22.7}, {"measurement": "Body weight change percentage", "setting": "[1]; Day 11", "value": "−0.25", "unit": "%"}, {"measurement": "Body weight", "setting": "[1]; Day 12", "value": 22.7}, {"measurement": "Body weight change percentage", "setting": "[1]; Day 12", "value": "−0.61", "unit": "%"}, {"measurement": "Body weight", "setting": "[1]; Day 13", "value": 23.3}, {"measurement": "Body weight change percentage", "setting": "[1]; Day 13", "value": 2.18, "unit": "%"}, {"measurement": "Body weight", "setting": "[1]; Day 14", "value": 23.2}, {"measurement": "Body weight change percentage", "setting": "[1]; Day 14", "value": 1.87, "unit": "%"}, {"measurement": "Body weight", "setting": "[1]; Day 15", "value": 23.2}, {"measurement": "Body weight change percentage", "setting": "[1]; Day 15", "value": 1.86, "unit": "%"}, {"measurement": "Body weight", "setting": "[1]; Day 16", "value": 23.3}, {"measurement": "Body weight change percentage", "setting": "[1]; Day 16", "value": 2.16, "unit": "%"}, {"measurement": "Body weight", "setting": "[1]; Day 17", "value": "23."}, {"measurement": "Body weight change percentage", "setting": "[1]; Day 17", "value": 1.43, "unit": "%"}, {"measurement": "Body weight", "setting": "[1]; Day 18", "value": 23.6}, {"measurement": "Body weight change percentage", "setting": "[1]; Day 18", "value": 3.45, "unit": "%"}, {"measurement": "Body weight", "setting": "[1]; Day 19", "value": 23.5}, {"measurement": "Body weight change percentage", "setting": "[1]; Day 19", "value": 3.00, "unit": "%"}, {"measurement": "Body weight", "setting": "[1]; Day 20", "value": 23.3}, {"measurement": "Body weight change percentage", "setting": "[1]; Day 20", "value": 2.19, "unit": "%"}, {"measurement": "Body weight", "setting": "[1]; Day 21", "value": 23.4}, {"measurement": "Body weight change percentage", "setting": "[1]; Day 21", "value": 2.68, "unit": "%"}, {"measurement": "Body weight", "setting": "[1]; Day 22", "value": 23.6}, {"measurement": "Body weight change percentage", "setting": "[1]; Day 22", "value": 3.51, "unit": "%"}, {"measurement": "Body weight", "setting": "[1]; Day 23", "value": 23.8}, {"measurement": "Body weight change percentage", "setting": "[1]; Day 23", "value": 4.38, "unit": "%"}, {"measurement": "Body weight", "setting": "[1]; Day 24", "value": 23.8}, {"measurement": "Body weight change percentage", "setting": "[1]; Day 24", "value": 4.47, "unit": "%"}, {"measurement": "Body weight", "setting": "[1]; Day 25", "value": 23.7}, {"measurement": "Body weight change percentage", "setting": "[1]; Day 25", "value": 3.80, "unit": "%"}, {"measurement": "Body weight", "setting": "[1]; Day 26", "value": 23.9}, {"measurement": "Body weight change percentage", "setting": "[1]; Day 26", "value": 4.97, "unit": "%"}, {"measurement": "Body weight", "setting": "[1]; Day 27", "value": 24.0}, {"measurement": "Body weight change percentage", "setting": "[1]; Day 27", "value": 5.39, "unit": "%"}, {"measurement": "Body weight", "setting": "[1]; Day 28", "value": 24.0}, {"measurement": "Body weight change percentage", "setting": "[1]; Day 28", "value": 5.29, "unit": "%"}, {"measurement": "Body weight", "setting": "[1]; Day 29", "value": 23.7}, {"measurement": "Body weight change percentage", "setting": "[1]; Day 29", "value": 4.05, "unit": "%"}, {"measurement": "Body weight", "setting": "[1]; Day 30", "value": 23.9}, {"measurement": "Body weight change percentage", "setting": "[1]; Day 30", "value": 4.85, "unit": "%"}, {"measurement": "Body weight", "setting": "[1]; Day 31", "value": 24.5}, {"measurement": "Body weight change percentage", "setting": "[1]; Day 31", "value": 7.24, "unit": "%"}, {"measurement": "Body weight", "setting": "[1]; Day 32", "value": 24.3}, {"measurement": "Body weight change percentage", "setting": "[1]; Day 32", "value": 6.56, "unit": "%"}, {"measurement": "Body weight", "setting": "[1]; Day 33", "value": 24.4}, {"measurement": "Body weight change percentage", "setting": "[1]; Day 33", "value": 6.92, "unit": "%"}, {"measurement": "Body weight", "setting": "[1]; Day 34", "value": 24.3}, {"measurement": "Body weight change percentage", "setting": "[1]; Day 34", "value": 6.71, "unit": "%"}, {"measurement": "Body weight", "setting": "[1]; Day 35", "value": 24.5}, {"measurement": "Body weight change percentage", "setting": "[1]; Day 35", "value": 7.26, "unit": "%"}, {"measurement": "Body weight loss / tolerance", "setting": "[1]; olaparib 100 mg/kg, TH-302 75 mg/kg, combination 100 + 75 mg/kg", "value": "No significant body weight losses; also recorded: good tolerance"}, {"measurement": "Tumor volume", "setting": "[2]; Day 6", "value": 146.72, "unit": "mm^3"}, {"measurement": "Tumor volume", "setting": "[2]; Day 9", "value": 223.17, "unit": "mm^3"}, {"measurement": "Tumor volume", "setting": "[2]; Day 13", "value": 263.96, "unit": "mm^3"}, {"measurement": "Tumor volume", "setting": "[2]; Day 16", "value": 314.03, "unit": "mm^3"}, {"measurement": "Tumor volume", "setting": "[2]; Day 20", "value": 373.87, "unit": "mm^3"}, {"measurement": "Tumor volume", "setting": "[2]; Day 23", "value": 419.26, "unit": "mm^3"}, {"measurement": "Tumor volume", "setting": "[2]; Day 27", "value": 518.48, "unit": "mm^3"}, {"measurement": "Tumor volume", "setting": "[2]; Day 30", "value": 550.33, "unit": "mm^3"}, {"measurement": "Tumor volume", "setting": "[2]; Day 34", "value": 604.32, "unit": "mm^3"}, {"measurement": "Tumor volume", "setting": "[2]; Day 37", "value": 725.18, "unit": "mm^3"}, {"measurement": "Tumor volume", "setting": "[2]; Day 41", "value": 767.49, "unit": "mm^3"}, {"measurement": "Relative Tumor Volume (x ± S)", "setting": "[2]; Day 43", "value": "5.72 ± 0.54"}, {"measurement": "T/C (%)", "setting": "[2]; Day 43", "value": 62.57, "unit": "%"}, {"measurement": "TGI (%)", "setting": "[2]; Day 43", "value": 37.43, "unit": "%"}, {"measurement": "Tumor volume", "setting": "[2]; Day 43, 100 mg/kg", "value": "846.86 mm^3 and 846.86 ± 128.85 mm^3"}, {"measurement": "CR Rate", "setting": "[2]; Day 43, complete response, animals/group", "value": "0/6"}]}
